# Source: patent US20230271142A1, “METHODS OF PREPARING SOLID PARTICULATE MATERIALS” (MICROPORE TECHNOLOGIES LIMITED, priority 2020, published 2023)
# Test: Particle size distribution of atorvastatin particles produced via LDC (laser diffraction)
# Type: physicochemical
# Method: 0.6 g of Atorvastatin was dissolved in 10 ml methanol in a beaker at room temperature to make up the organic phase. 0.5% HPMC (Mn 10,000) in DI water was used as the aqueous phase. The LDC was configured with a membrane with 10 μm pores, spaced 200 μm apart in a square grid, in a ring. The stirrer speed was set at […] (1750 rpm), and the organic phase injection rate set at 10 ml/min. The line was primed with organic phase and the CP was poured into the stirred cell. Addition was started and ended when 3 ml of DP was injected. The solution was left to stir until precipitation was visible. The crystals were analyzed via microscopy and Laser Diffraction (Beckmann Coulter LS-230).
# [1] = 10 μm pores, methanol solution into 0.5% HPMC water
smiles,measurement,setting,value
CC(C)c1c(C(=O)Nc2ccccc2)c(-c2ccccc2)c(-c2ccc(F)cc2)n1CC[C@@H](O)C[C@@H](O)CC(=O)O [Atorvastatin],Span,,1.66
same,Volume Mean,10 μm pores,10.24 μm
same,D10,[1],4.38 μm
same,D50,[1],8.78 μm
same,D90,[1],18.92 μm
